Data published in patent publication US20240237643A1, “COMPOSITIONS WITH VIRUCIDAL AND/OR ANTIVIRAL ACTIVITY” (priority 2020, published 2024).

Legend:
Test in all cases: Virucidal activity, quantitative suspension test DIN EN 14476
Assay type in all cases: cell-based
[1] = system: Human respiratory syncytial virus (HRSV)
[2] = system: Influenza virus (H1N1)
[3] = system: Coronavirus (MHV-3)
Description: Testing was conducted over a period of 1 to 10 minutes. Activity against the following viruses was determined: • Coronavirus (MHV-3) • Influenza virus (H1N1) • Herpes simplex virus (HV) • Human respiratory syncytial virus (HRSV)
In this context (+) means that more than 99.99% of all viruses were inactivated; this is equivalent to a reduction factor of 10,000.

[4] = system: Herpes simplex virus (HV)
[5] = 0.1 wt.-percent in water, 1 min
[6] = 0.1 wt.-percent in water, 10 min
[7] = 10 wt.-percent in water, 10 min
[8] = 33 wt.-percent in water, 10 min

| Compound | Virucidal activity HRSV [1, 5] | Virucidal activity HRSV [1, 6] | Virucidal activity HRSV ([1]; 1 wt.-percent in water, 1 min) | Virucidal activity HRSV ([1]; 1 wt.-percent in water, 10 min) | Virucidal activity HRSV ([1]; 10 wt.-percent in water, 1 min) | Virucidal activity HRSV [1, 7] | Virucidal activity H1N1 [2, 5] | Virucidal activity H1N1 [2, 6] | Virucidal activity H1N1 ([2]; 1 wt.-percent in water, 1 min) | Virucidal activity H1N1 ([2]; 1 wt.-percent in water, 10 min) | Virucidal activity H1N1 ([2]; 10 wt.-percent in water, 1 min) | Virucidal activity H1N1 [2, 7] | Virucidal activity MHV-3 [3, 5] | Virucidal activity MHV-3 [3, 6] | Virucidal activity MHV-3 ([3]; 1 wt.-percent in water, 1 min) | Virucidal activity MHV-3 ([3]; 1 wt.-percent in water, 10 min) | Virucidal activity MHV-3 ([3]; 10 wt.-percent in water, 1 min) | Virucidal activity MHV-3 [3, 7] | Virucidal activity HV [4, 5] | Virucidal activity HV [4, 6] | also measured |
| --- | --- | --- | --- | --- | --- | --- | --- | --- | --- | --- | --- | --- | --- | --- | --- | --- | --- | --- | --- | --- | --- |
| Cc1cc(O)ccc1C(C)C [4-isopropyl-3-methylphenol] | (+) ((+) means that more than 99.99% of all viruses were inactivated; this is equivalent to a reduction factor of 10,000) | (+) ((+) means that more than 99.99% of all viruses were inactivated; this is equivalent to a reduction factor of 10,000) | (+) ((+) means that more than 99.99% of all viruses were inactivated; this is equivalent to a reduction factor of 10,000) | (+) ((+) means that more than 99.99% of all viruses were inactivated; this is equivalent to a reduction factor of 10,000) | (+) ((+) means that more than 99.99% of all viruses were inactivated; this is equivalent to a reduction factor of 10,000) | (+) ((+) means that more than 99.99% of all viruses were inactivated; this is equivalent to a reduction factor of 10,000) | (+) ((+) means that more than 99.99% of all viruses were inactivated; this is equivalent to a reduction factor of 10,000) | (+) ((+) means that more than 99.99% of all viruses were inactivated; this is equivalent to a reduction factor of 10,000) | (+) ((+) means that more than 99.99% of all viruses were inactivated; this is equivalent to a reduction factor of 10,000) | (+) ((+) means that more than 99.99% of all viruses were inactivated; this is equivalent to a reduction factor of 10,000) | (+) ((+) means that more than 99.99% of all viruses were inactivated; this is equivalent to a reduction factor of 10,000) | (+) ((+) means that more than 99.99% of all viruses were inactivated; this is equivalent to a reduction factor of 10,000) | (+) ((+) means that more than 99.99% of all viruses were inactivated; this is equivalent to a reduction factor of 10,000) | (+) ((+) means that more than 99.99% of all viruses were inactivated; this is equivalent to a reduction factor of 10,000) | (+) ((+) means that more than 99.99% of all viruses were inactivated; this is equivalent to a reduction factor of 10,000) | (+) ((+) means that more than 99.99% of all viruses were inactivated; this is equivalent to a reduction factor of 10,000) | (+) ((+) means that more than 99.99% of all viruses were inactivated; this is equivalent to a reduction factor of 10,000) | (+) ((+) means that more than 99.99% of all viruses were inactivated; this is equivalent to a reduction factor of 10,000) | (+) ((+) means that more than 99.99% of all viruses were inactivated; this is equivalent to a reduction factor of 10,000) | (+) ((+) means that more than 99.99% of all viruses were inactivated; this is equivalent to a reduction factor of 10,000) | Virucidal activity HV ([4]; 1 wt.-percent in water, 1 min): (+) ((+) means that more than 99.99% of all viruses were inactivated; this is equivalent to a reduction factor of 10,000); Virucidal activity HV ([4]; 1 wt.-percent in water, 10 min): (+) ((+) means that more than 99.99% of all viruses were inactivated; this is equivalent to a reduction factor of 10,000); Virucidal activity HV ([4]; 10 wt.-percent in water, 1 min): (+) ((+) means that more than 99.99% of all viruses were inactivated; this is equivalent to a reduction factor of 10,000); Virucidal activity HV [4, 7]: (+) ((+) means that more than 99.99% of all viruses were inactivated; this is equivalent to a reduction factor of 10,000) |
| CCCCCCCCC(O)CO (centres unmarked) [1,2-decanediol] | (+) ((+) means that more than 99.99% of all viruses were inactivated; this is equivalent to a reduction factor of 10,000) | (+) ((+) means that more than 99.99% of all viruses were inactivated; this is equivalent to a reduction factor of 10,000) | (+) ((+) means that more than 99.99% of all viruses were inactivated; this is equivalent to a reduction factor of 10,000) | (+) ((+) means that more than 99.99% of all viruses were inactivated; this is equivalent to a reduction factor of 10,000) | (+) ((+) means that more than 99.99% of all viruses were inactivated; this is equivalent to a reduction factor of 10,000) | (+) ((+) means that more than 99.99% of all viruses were inactivated; this is equivalent to a reduction factor of 10,000) | (+) ((+) means that more than 99.99% of all viruses were inactivated; this is equivalent to a reduction factor of 10,000) | (+) ((+) means that more than 99.99% of all viruses were inactivated; this is equivalent to a reduction factor of 10,000) | (+) ((+) means that more than 99.99% of all viruses were inactivated; this is equivalent to a reduction factor of 10,000) | (+) ((+) means that more than 99.99% of all viruses were inactivated; this is equivalent to a reduction factor of 10,000) | (+) ((+) means that more than 99.99% of all viruses were inactivated; this is equivalent to a reduction factor of 10,000) | (+) ((+) means that more than 99.99% of all viruses were inactivated; this is equivalent to a reduction factor of 10,000) | (+) ((+) means that more than 99.99% of all viruses were inactivated; this is equivalent to a reduction factor of 10,000) | (+) ((+) means that more than 99.99% of all viruses were inactivated; this is equivalent to a reduction factor of 10,000) | (+) ((+) means that more than 99.99% of all viruses were inactivated; this is equivalent to a reduction factor of 10,000) | (+) ((+) means that more than 99.99% of all viruses were inactivated; this is equivalent to a reduction factor of 10,000) | (+) ((+) means that more than 99.99% of all viruses were inactivated; this is equivalent to a reduction factor of 10,000) | (+) ((+) means that more than 99.99% of all viruses were inactivated; this is equivalent to a reduction factor of 10,000) | (+) ((+) means that more than 99.99% of all viruses were inactivated; this is equivalent to a reduction factor of 10,000) | (+) ((+) means that more than 99.99% of all viruses were inactivated; this is equivalent to a reduction factor of 10,000) | Virucidal activity HV ([4]; 1 wt.-percent in water, 1 min): (+) ((+) means that more than 99.99% of all viruses were inactivated; this is equivalent to a reduction factor of 10,000); Virucidal activity HV ([4]; 1 wt.-percent in water, 10 min): (+) ((+) means that more than 99.99% of all viruses were inactivated; this is equivalent to a reduction factor of 10,000); Virucidal activity HV ([4]; 10 wt.-percent in water, 1 min): (+) ((+) means that more than 99.99% of all viruses were inactivated; this is equivalent to a reduction factor of 10,000); Virucidal activity HV [4, 7]: (+) ((+) means that more than 99.99% of all viruses were inactivated; this is equivalent to a reduction factor of 10,000) |
| CCCC(O)CO (centres unmarked) [1,2-pentanediol] | – | – | – | – | – | – | – | – | – | – | – | – | – | – | – | – | – | – | – | – | Virucidal activity HRSV ([1]; 33 wt.-percent in water, 1 min): (+) ((+) means that more than 99.99% of all viruses were inactivated; this is equivalent to a reduction factor of 10,000); Virucidal activity HRSV ([1]; 33 wt.-percent in water, 5 min): (+) ((+) means that more than 99.99% of all viruses were inactivated; this is equivalent to a reduction factor of 10,000); Virucidal activity HRSV [1, 8]: (+) ((+) means that more than 99.99% of all viruses were inactivated; this is equivalent to a reduction factor of 10,000); Virucidal activity H1N1 ([2]; 33 wt.-percent in water, 1 min): (+) ((+) means that more than 99.99% of all viruses were inactivated; this is equivalent to a reduction factor of 10,000); Virucidal activity H1N1 ([2]; 33 wt.-percent in water, 5 min): (+) ((+) means that more than 99.99% of all viruses were inactivated; this is equivalent to a reduction factor of 10,000); Virucidal activity H1N1 [2, 8]: (+) ((+) means that more than 99.99% of all viruses were inactivated; this is equivalent to a reduction factor of 10,000); Virucidal activity MHV-3 ([3]; 33 wt.-percent in water, 1 min): (+) ((+) means that more than 99.99% of all viruses were inactivated; this is equivalent to a reduction factor of 10,000); Virucidal activity MHV-3 ([3]; 33 wt.-percent in water, 5 min): (+) ((+) means that more than 99.99% of all viruses were inactivated; this is equivalent to a reduction factor of 10,000); Virucidal activity MHV-3 [3, 8]: (+) ((+) means that more than 99.99% of all viruses were inactivated; this is equivalent to a reduction factor of 10,000); Virucidal activity HV ([4]; 33 wt.-percent in water, 1 min): (+) ((+) means that more than 99.99% of all viruses were inactivated; this is equivalent to a reduction factor of 10,000); Virucidal activity HV ([4]; 33 wt.-percent in water, 5 min): (+) ((+) means that more than 99.99% of all viruses were inactivated; this is equivalent to a reduction factor of 10,000); Virucidal activity HV [4, 8]: (+) ((+) means that more than 99.99% of all viruses were inactivated; this is equivalent to a reduction factor of 10,000) |
| CCCCC(O)CO (centres unmarked) [1,2-hexanediol] | – | – | – | – | – | – | – | – | – | – | – | – | – | – | – | – | – | – | – | – | Virucidal activity HRSV ([1]; 33 wt.-percent in water, 1 min): (+) ((+) means that more than 99.99% of all viruses were inactivated; this is equivalent to a reduction factor of 10,000); Virucidal activity H1N1 ([2]; 33 wt.-percent in water, 1 min): (+) ((+) means that more than 99.99% of all viruses were inactivated; this is equivalent to a reduction factor of 10,000); Virucidal activity MHV-3 ([3]; 33 wt.-percent in water, 1 min): (+) ((+) means that more than 99.99% of all viruses were inactivated; this is equivalent to a reduction factor of 10,000); Virucidal activity HV ([4]; 33 wt.-percent in water, 1 min): (+) ((+) means that more than 99.99% of all viruses were inactivated; this is equivalent to a reduction factor of 10,000) |
| CCCCCCC(O)CO (centres unmarked) [1,2-octanediol] | – | – | – | – | – | – | – | – | – | – | – | – | – | – | – | – | – | – | – | – | Virucidal activity HRSV [1, 8]: (+) ((+) means that more than 99.99% of all viruses were inactivated; this is equivalent to a reduction factor of 10,000); Virucidal activity H1N1 [2, 8]: (+) ((+) means that more than 99.99% of all viruses were inactivated; this is equivalent to a reduction factor of 10,000); Virucidal activity MHV-3 [3, 8]: (+) ((+) means that more than 99.99% of all viruses were inactivated; this is equivalent to a reduction factor of 10,000); Virucidal activity HV [4, 8]: (+) ((+) means that more than 99.99% of all viruses were inactivated; this is equivalent to a reduction factor of 10,000) |
